From BigSolDB 2.1

CC(O)(P(=O)(O)O)P(=O)(O)O.O
solubility (mole fraction)
Conditions | 293.15 K | 298.15 K | 303.15 K | 308.15 K | 313.15 K | 318.15 K | 323.15 K | 328.15 K
in acetic acid | 0.00181 | 0.0019 | 0.00196 | 0.002 | 0.002 | 0.00214 | 0.00225 | 0.00224
in water | 0.174 | 0.182 | 0.19 | 0.198 | 0.207 | 0.215 | 0.225 | 0.235
